Assay [1] deals with human GLP-1 receptor (hGLP-1R) (Homo sapiens, UniProt P43220). The assay can be described thus: cAMP production (HTRF) in CHO cells expressing hGLP-1R. As to conditions: for EC50: geometric mean, read-out: hGLP-1R EC50; for % Relative Potency Ratio: % GLP-1R activity relative to GLP-1 / % GlucR activity relative to glucagon. The class given is cell-based. More on the design: expressed in transfected cells. In a few lines:
(§1)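 Read-out: HTRF cAMP (anti-cAMP cryptate donor, cAMP-d2 acceptor in conjugate/lysis buffer), converted to % Delta F and fitted by 4-parameter logistic for EC50. Cell densities were 1×10^5 cells/mL (hGLP-1R) or 2×10^5 cells/mL (hGCGR). Stimulation lasted 30 min at room temperature.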

Assay [2] concerns the target human glucagon receptor (hGCGR) (Homo sapiens, UniProt P47871). As to the kind of experiment: cAMP production (HTRF) in CHO cells expressing hGCGR. As to conditions: geometric mean, read-out: hGluc-R EC50. Details: expressed in transfected cells. The class given is cell-based. In a few lines: as §1
A general note: Changes in cAMP serve as a functional read-out for many G protein-coupled receptors.

Where [3] appears, read: Table 6, peptides modified at position 17, cAMP in CHO hGLP-1R cells.
The mark [4] stands for this setting: Table 6, peptides modified at position 17, cAMP in CHO hGCGR cells.
Setting [5] is: Table 7, peptides modified at position 20, cAMP in CHO hGLP-1R cells.
[6] abbreviates: Table 7, peptides modified at position 20, cAMP in CHO hGCGR cells.

Read-outs that look alike come from different tables or passages of the source. Starred links: 1 amine or outer side, 2 acyl side, 3 side chain; linkers in the order of their positions; H or OH if unused. Non-standard residues stand in square brackets, D forms with d. Residues, ends and D or L forms follow the SMILES beside them. Groups on a side chain read outwards from the residue. *: point of attachment. C20 diacid = O=C(O)CCCCCCCCCCCCCCCCCCC(=O)*; C18 diacid = O=C(O)CCCCCCCCCCCCCCCCC(=O)*; γGlu = O=C(O)[C@H](CCC(=O)[*:2])N[*:1]; Stearoyl = CCCCCCCCCCCCCCCCCC(=O)*; αMeF = C[C@](N)(Cc1ccccc1)C(=O)O; PEG2 = NCCOCCOCCC(=O)O; AEEA = NCCOCCOCC(=O)O; Aib = CC(C)(N)C(=O)O

Chain of human glucagon receptor (hGCGR) (P47871 26-477): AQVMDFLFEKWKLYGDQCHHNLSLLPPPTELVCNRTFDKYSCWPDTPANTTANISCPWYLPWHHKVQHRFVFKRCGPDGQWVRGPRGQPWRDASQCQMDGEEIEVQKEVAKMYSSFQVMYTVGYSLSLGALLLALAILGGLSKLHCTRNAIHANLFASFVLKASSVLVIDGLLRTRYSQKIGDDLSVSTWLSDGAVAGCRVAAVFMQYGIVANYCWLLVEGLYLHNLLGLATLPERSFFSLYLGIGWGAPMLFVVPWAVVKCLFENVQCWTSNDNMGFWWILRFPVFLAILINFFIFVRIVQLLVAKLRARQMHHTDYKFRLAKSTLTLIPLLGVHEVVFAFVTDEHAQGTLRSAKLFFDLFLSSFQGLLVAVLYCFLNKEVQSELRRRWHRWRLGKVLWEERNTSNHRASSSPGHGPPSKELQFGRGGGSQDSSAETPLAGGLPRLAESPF
Chain of human GLP-1 receptor (hGLP-1R) (P43220 24-463): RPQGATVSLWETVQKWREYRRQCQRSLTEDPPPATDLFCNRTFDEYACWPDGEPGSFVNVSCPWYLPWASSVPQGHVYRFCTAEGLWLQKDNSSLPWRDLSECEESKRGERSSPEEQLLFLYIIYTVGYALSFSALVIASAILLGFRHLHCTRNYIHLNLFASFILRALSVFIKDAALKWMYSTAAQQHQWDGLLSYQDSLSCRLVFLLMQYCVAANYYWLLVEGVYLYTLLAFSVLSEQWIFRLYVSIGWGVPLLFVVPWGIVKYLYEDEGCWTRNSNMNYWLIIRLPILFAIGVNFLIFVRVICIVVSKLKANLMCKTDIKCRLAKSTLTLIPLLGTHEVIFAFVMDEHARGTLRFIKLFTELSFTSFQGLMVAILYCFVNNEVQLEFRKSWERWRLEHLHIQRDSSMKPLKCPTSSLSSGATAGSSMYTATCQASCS

Broadly, the EC50 is the midpoint of the concentration-response curve. As to `CC(C)C[C@H](NC(=O)[C@H](Cc1c[nH]c2ccccc12)NC(=O)[C@H](CCC(N)=O)NC(=O)[C@@H](NC(=O)[C@H](Cc1ccccc1)NC(=O)[C@H](CC(=O)O)NC(=O)[C@H](CCCNC(=N)N)NC(=O)[C@H](C)NC(=O)[C@H](CCCNC(=N)N)NC(=O)[C@H](CCCCNC(=O)COCCOCCNC(=O)COCCOCCNC(=O)CC[C@H](NC(=O)CC[C@H](NC(=O)CCCCCCCCCCCCCCCCC(=O)O)C(=O)O)C(=O)O)NC(=O)[C@@H](NC(=O)[C@H](CC(=O)O)NC(=O)[C@H](CC(C)C)NC(=O)[C@](C)(Cc1ccccc1)NC(=O)[C@H](CCCCN)NC(=O)[C@H](CO)NC(=O)[C@@H](NC(=O)[C@H](CC(=O)O)NC(=O)[C@H](CO)NC(=O)[C@@H](NC(=O)[C@H](Cc1ccccc1)NC(=O)[C@@H](NC(=O)CNC(=O)[C@H](CCC(N)=O)NC(=O)C(C)(C)NC(=O)[C@@H](N)Cc1c[nH]cn1)[C@@H](C)O)[C@@H](C)O)C(C)C)[C@@H](C)O)C(C)C)C(=O)N[C@@H](CC(C)C)C(=O)N[C@@H](CCC(=O)O)C(=O)NC(C)(C)C(=O)NCC(=O)O` [Peptide 518], the EC50 is 0.031 nM in assay [1] (setting [3]) and 0.0773 nM in assay [2] (setting [4]). For the same compound, the “% Relative Potency Ratio” value in assay [1] (Table 6) came out at 4.9.

For `CCCCCCCCCCCCCCCCCC(=O)N[C@@H](CCC(=O)NCCOCCOCCC(=O)NCCOCCOCCC(=O)NCCCC[C@H](NC(=O)[C@H](CO)NC(=O)[C@H](CC(=O)O)NC(=O)[C@H](CC(C)C)NC(=O)[C@@H](NC(=O)[C@H](CCCCN)NC(=O)[C@H](CO)NC(=O)[C@@H](NC(=O)[C@H](CC(=O)O)NC(=O)[C@H](CO)NC(=O)[C@@H](NC(=O)[C@](C)(Cc1ccccc1)NC(=O)[C@H](CO)NC(=O)CNC(=O)[C@H](CCC(N)=O)NC(=O)[C@H](CO)NC(=O)[C@@H](N)Cc1c[nH]cn1)[C@@H](C)O)C(C)C)[C@@H](C)CC)C(=O)N[C@@H](C)C(=O)N[C@@H](C)C(=O)N[C@@H](CCC(N)=O)C(=O)N[C@@H](CC(=O)O)C(=O)N[C@@](C)(Cc1ccccc1)C(=O)N[C@H](C(=O)N[C@@H](CCC(N)=O)C(=O)NC(C)(C)C(=O)N[C@H](C(=O)N[C@H](C(=O)N[C@@H](CC(N)=O)C(=O)N[C@H](C(N)=O)[C@@H](C)O)[C@@H](C)CC)[C@@H](C)CC)C(C)C)C(=O)O` [Peptide 120] (H-HSQGS[αMeF]TSDVSKILDSK([PEG2-PEG2-γGlu-Stearoyl])AAQD[αMeF]VQ[Aib]IINT-NH2; N-terminus assumed), the results for the EC50 in assay [1] (setting [3]) and in assay [2] (setting [4]) were 0.00181 nM and 0.00262 nM, respectively. In addition, in assay [1] (Table 6), the “% Relative Potency Ratio” value was 2.9.

Consider `CC[C@H](C)[C@H](NC(=O)[C@H](Cc1c[nH]c2ccccc12)NC(=O)[C@H](CCC(N)=O)NC(=O)[C@@H](NC(=O)[C@H](Cc1ccccc1)NC(=O)[C@H](CC(=O)O)NC(=O)[C@H](CCCCNC(=O)COCCOCCNC(=O)COCCOCCNC(=O)CC[C@H](NC(=O)CC[C@H](NC(=O)CCCCCCCCCCCCCCCCCCC(=O)O)C(=O)O)C(=O)O)NC(=O)[C@H](C)NC(=O)[C@H](C)NC(=O)[C@H](CCCNC(=N)N)NC(=O)[C@H](CO)NC(=O)[C@H](CC(=O)O)NC(=O)[C@H](CC(C)C)NC(=O)[C@](C)(Cc1ccccc1)NC(=O)[C@H](CCCCN)NC(=O)[C@H](CO)NC(=O)[C@@H](NC(=O)[C@H](CC(=O)O)NC(=O)[C@H](CO)NC(=O)[C@@H](NC(=O)[C@](C)(Cc1ccccc1)NC(=O)[C@H](CO)NC(=O)CNC(=O)[C@H](Cc1c[nH]cn1)NC(=O)C(C)(C)NC(=O)[C@@H](N)Cc1c[nH]cn1)[C@@H](C)O)C(C)C)C(C)C)C(=O)N[C@@H](C)C(=O)N[C@@H](CC(N)=O)C(=O)N[C@H](C(=O)NCC(N)=O)[C@@H](C)O` [Peptide 218] (H-H[Aib]HGS[αMeF]TSDVSK[αMeF]LDSRAAK([AEEA-AEEA-γGlu-γGlu-C20 diacid])DFVQWIANTG-NH2), for which the EC50 is 0.139 nM in assay [1] (setting [5]) and 0.423 nM in assay [2] (setting [6]). In assay [1] (Table 7), the “% Relative Potency Ratio” value was determined as 6.0.

Consider `CC(C)C[C@H](NC(=O)[C@H](Cc1c[nH]c2ccccc12)NC(=O)[C@H](CCC(N)=O)NC(=O)[C@@H](NC(=O)[C@H](Cc1ccccc1)NC(=O)[C@H](CC(=O)O)NC(=O)[C@H](CCCCNC(=O)CC[C@H](NC(=O)CCCCCCCCCCCCCCCCC(=O)O)C(=O)O)NC(=O)[C@H](C)NC(=O)[C@H](CCCNC(=N)N)NC(=O)[C@H](CCCNC(=N)N)NC(=O)[C@H](CO)NC(=O)[C@H](CC(=O)O)NC(=O)[C@H](CC(C)C)NC(=O)[C@](C)(Cc1ccccc1)NC(=O)[C@H](CCCCN)NC(=O)[C@H](CO)NC(=O)[C@H](Cc1ccc(O)cc1)NC(=O)[C@H](CC(=O)O)NC(=O)[C@H](CO)NC(=O)[C@@H](NC(=O)[C@H](Cc1ccccc1)NC(=O)[C@@H](NC(=O)CNC(=O)[C@H](CCC(N)=O)NC(=O)C(C)(C)NC(=O)[C@@H](N)Cc1c[nH]cn1)[C@@H](C)O)[C@@H](C)O)C(C)C)C(=O)N[C@@H](CC(C)C)C(=O)NC(C)(C)C(=O)N[C@H](C(=O)O)[C@@H](C)O` [Peptide 337], for which the EC50 in assay [1] (setting [5]) worked out at 0.4 nM; in assay [2] (setting [6]), 0.0896 nM. In addition, the “% Relative Potency Ratio” value in assay [1] (Table 7) came to 0.4.

As for `CC[C@H](C)[C@H](NC(=O)C(C)(C)NC(=O)[C@H](CCC(N)=O)NC(=O)[C@@H](NC(=O)[C@](C)(Cc1ccccc1)NC(=O)[C@H](CC(=O)O)NC(=O)[C@H](CCCCNC(=O)CC[C@H](NC(=O)CCCCCCCCCCCCCCCCC(=O)O)C(=O)O)NC(=O)[C@H](C)NC(=O)[C@H](C)NC(=O)[C@H](CCCNC(=N)N)NC(=O)[C@H](CO)NC(=O)[C@H](CC(=O)O)NC(=O)[C@H](CC(C)C)NC(=O)[C@](C)(Cc1ccccc1)NC(=O)[C@H](CCCCN)NC(=O)[C@H](CO)NC(=O)[C@@H](NC(=O)[C@H](CC(=O)O)NC(=O)[C@H](CO)NC(=O)[C@@H](NC(=O)[C@](C)(Cc1ccccc1)NC(=O)[C@H](CO)NC(=O)CNC(=O)[C@H](Cc1c[nH]cn1)NC(=O)C(C)(C)NC(=O)[C@@H](N)Cc1c[nH]cn1)[C@@H](C)O)C(C)C)C(C)C)C(=O)N[C@@H](C)C(=O)N[C@@H](CC(N)=O)C(=O)N[C@H](C(N)=O)[C@@H](C)O` [Peptide 271] (H-H[Aib]HGS[αMeF]TSDVSK[αMeF]LDSRAAK([γGlu-C18 diacid])D[αMeF]VQ[Aib]IANT-NH2; N-terminus assumed), the EC50 in assay [1] (setting [5]) turned out to be 0.0546 nM; in assay [2] (setting [6]) it was 0.028 nM. In addition, the “% Relative Potency Ratio” value in assay [1] (Table 7) was 1.0.

`CC[C@H](C)[C@H](NC(=O)C(C)(C)NC(=O)[C@H](CCC(N)=O)NC(=O)[C@@H](NC(=O)[C@](C)(Cc1ccccc1)NC(=O)[C@H](CC(=O)O)NC(=O)[C@H](CCCCNC(=O)COCCOCCNC(=O)COCCOCCNC(=O)CC[C@H](NC(=O)CC[C@H](NC(=O)CCCCCCCCCCCCCCCCCCC(=O)O)C(=O)O)C(=O)O)NC(=O)[C@H](C)NC(=O)[C@H](C)NC(=O)[C@H](CCCNC(=N)N)NC(=O)[C@H](CO)NC(=O)[C@H](CC(=O)O)NC(=O)[C@H](CC(C)C)NC(=O)[C@](C)(Cc1ccccc1)NC(=O)[C@H](CCCCN)NC(=O)[C@H](CO)NC(=O)[C@@H](NC(=O)[C@H](CC(=O)O)NC(=O)[C@H](CO)NC(=O)[C@@H](NC(=O)[C@](C)(Cc1ccccc1)NC(=O)[C@H](CO)NC(=O)CNC(=O)[C@H](Cc1c[nH]cn1)NC(=O)C(C)(C)NC(=O)[C@@H](N)Cc1c[nH]cn1)[C@@H](C)O)C(C)C)C(C)C)C(=O)N[C@@H](C)C(=O)N[C@@H](CCC(=O)O)C(=O)N[C@H](C(N)=O)[C@@H](C)O` [Peptide 299] (H-H[Aib]HGS[αMeF]TSDVSK[αMeF]LDSRAAK([AEEA-AEEA-γGlu-γGlu-C20 diacid])D[αMeF]VQ[Aib]IAET-NH2): the EC50 was determined as 0.0758 nM in assay [1] (setting [5]) and 0.193 nM in assay [2] (setting [6]).

For `CC[C@H](C)[C@H](NC(=O)[C@H](Cc1c[nH]c2ccccc12)NC(=O)[C@H](CCCCNC(=O)COCCOCCNC(=O)COCCOCCNC(=O)CC[C@H](NC(=O)CC[C@H](NC(=O)CCCCCCCCCCCCCCCCCCC(=O)O)C(=O)O)C(=O)O)NC(=O)[C@@H](NC(=O)[C@H](Cc1ccccc1)NC(=O)[C@H](CC(=O)O)NC(=O)[C@H](CCC(N)=O)NC(=O)[C@H](C)NC(=O)[C@H](C)NC(=O)[C@H](CCCNC(=N)N)NC(=O)[C@H](CO)NC(=O)[C@H](CC(=O)O)NC(=O)[C@H](CC(C)C)NC(=O)[C@](C)(Cc1ccccc1)NC(=O)[C@H](CCCCN)NC(=O)[C@H](CO)NC(=O)[C@@H](NC(=O)[C@H](CC(=O)O)NC(=O)[C@H](CO)NC(=O)[C@@H](NC(=O)[C@](C)(Cc1ccccc1)NC(=O)[C@H](CO)NC(=O)CNC(=O)[C@H](Cc1c[nH]cn1)NC(=O)C(C)(C)NC(=O)[C@@H](N)Cc1c[nH]cn1)[C@@H](C)O)C(C)C)C(C)C)C(=O)N[C@@H](C)C(=O)N[C@@H](CC(N)=O)C(=O)N[C@H](C(N)=O)[C@@H](C)O` [Peptide 377] (H-H[Aib]HGS[αMeF]TSDVSK[αMeF]LDSRAAQDFVK([AEEA-AEEA-γGlu-γGlu-C20 diacid])WIANT-NH2; N-terminus assumed), the “% Relative Potency Ratio” value in assay [1] is listed as 2.5. Besides, the EC50 amounted to 0.15 nM in assay [1] (cAMP, CHO cells, 0.1% BSA) and 0.19 nM in assay [2] (cAMP, CHO cells, 0.1% BSA).

Values taken from patent US20250353891A1 (MEDIMMUNE LIMITED, priority 2022, published 2025).
